# Reference: patent US20040116346A1, “Affinity small molecules for the EPO receptor” (priority 2002, published 2004)
# Experiments:
# [1] = test system: Mouse or human bone marrow cells; assay: Formation of erythroid colonies (CFU-e, BFU-e) from bone marrow in methylcellulose; format: cell-based; details: mouse and human bone marrow
# Experimental: Mouse or human bone marrow cells were stimulated in methylcellulose for 7 days (mouse) or 14 days (human) with non-peptide EPO-R modulators. Formation of erythroid colonies was observed. (See FIGS. 6 to 8)
# (1) Dilute human bone marrow 1:1 with sterile PBS. (2) Slowly layer bone marrow into 50 ml tubes containing 20 ml of LSM Lymphocyte separation medium (ICN/Cappel—cat #50494). 50 ml bone marrow will yield 2 tubes. (3) Spin tubes at 2000 rpm for 30 minutes with brake off. (4) Slowly take out the middle layer using a 10 ml pipette and transfer into a new 50 ml tube. (5) Add PBS +0.5% BSA +5 mM EDTA to tube for washing. (6) Spin tube for 5 minutes at speed 4 with brake on. (7) Repeat wash step 2 more times. (8) After 3rd wash, resuspend pellet in SF Iscoves' MDM medium. (9) Count by diluting cells in 3% acetic acid. (10) Dilute cells to desired concentration (5×10^5 cells/ml) and seed onto methylcellulose.
# (1) Tubes containing 3.0 ml of methylcellulose medium (Stemcell Technology, cat #H4230) supplemented with 50 ng/ml hSCF are prepared. (Alternatively the methylcellulose could be supplemented with 50 ng/ml hSCF, 20 ng/ml of hIL-3 and hIL-6). (2) Compounds or EPO of desired concentrations are added to the tubes. […] Colonies are scored on day twelve.
# Bone marrow cells were isolated from mouse femurs. […] The colonies were scored on day seven. […]
# TF-1 cells = assay: Cell proliferation; format: cell-based; details: TF-1 cells stimulated for 96 hours
# Experimental: TF-1 cells were stimulated for 96 hours with different non-peptide EPO-R modulators, and it was observed that the non-peptide EPO binding molecules stimulated cellular proliferation in dose-responsive manner and to the extent of the natural hormone.
compound,measurement,setting,value
Cc1ccc(Cl)cc1Nc1nc2nc(C)c(NCC3CC3)cn2n1 [Compound E5],CFU-e formation compared with EPO,[1],stimulate CFU-e formation to the same extent as EPO
same,cellular proliferation,TF-1 cells,proliferative effect
